# Experimental data reported in US20060252807A1, “Novel ortho-terphenyl inhibitors of p38 kinase and methods of treating inflammatory disorders” (Kalypsys, Inc., priority 2005, published 2006).
# Biological target: T1, active p38 alpha enzyme (Upstate Biotechnology) (Homo sapiens, UniProt Q16539)
# T1 construct: purchased Upstate Biotechnology
# Assay: p38α biochemical assay (ATP turnover, luminescent detection, Cambrex PKlight)
# Details: p38α kinase; Table 1 Biological Activity
# Summary of the method: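 Luminescent ATP-depletion readout measures total ATP turnover by p38α phosphorylating whole MapkapK2 protein. ATP 1.4 uM final; 30C, 2 h. Compounds delivered from DMSO.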
# T1 sequence (Q16539 whole entry): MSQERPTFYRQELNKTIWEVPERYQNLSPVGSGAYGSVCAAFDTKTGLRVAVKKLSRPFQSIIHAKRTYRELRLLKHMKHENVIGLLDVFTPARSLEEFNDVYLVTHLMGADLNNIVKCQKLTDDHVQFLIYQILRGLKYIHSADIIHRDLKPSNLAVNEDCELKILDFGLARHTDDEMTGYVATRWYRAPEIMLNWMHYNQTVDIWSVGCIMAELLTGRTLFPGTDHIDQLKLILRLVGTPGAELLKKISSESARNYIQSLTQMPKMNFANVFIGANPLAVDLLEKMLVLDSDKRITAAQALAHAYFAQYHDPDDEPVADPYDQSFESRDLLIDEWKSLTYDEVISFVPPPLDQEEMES
row,IC50,Structure (SMILES)
1,> 1000 nM,CC(C)NC(=O)c1csc(-c2c(-c3ccc(F)cc3)n[nH]c2C2CCN(C(=O)c3ccc(N(C)C=O)cc3)CC2)n1 [Example 924]
2,≤ 1000 nM,CC(=O)Nc1cccc(C(=O)N2CCC(c3[nH]nc(-c4ccc(F)cc4)c3-c3nc(C(=O)NC(C)C)cs3)CC2)c1 [Example 925]
3,> 1000 nM,CC(C)NC(=O)c1csc(-c2c(-c3ccc(F)cc3)n[nH]c2C2CCN(C(=O)COc3ccccc3C=O)CC2)n1 [Example 926]
4,> 1000 nM,CC(=O)Oc1ccc(C(=O)N2CCC(c3[nH]nc(-c4ccc(F)cc4)c3-c3nc(C(=O)NC(C)C)cs3)CC2)cc1 [Example 927]
5,> 1000 nM,COC(=O)c1ccc(C(=O)N2CCC(c3[nH]nc(-c4ccc(F)cc4)c3-c3nc(C(=O)NC(C)C)cs3)CC2)cc1 [Example 928]
6,> 1000 nM,CC(=O)Oc1cccc(C(=O)N2CCC(c3[nH]nc(-c4ccc(F)cc4)c3-c3nc(C(=O)NC(C)C)cs3)CC2)c1 [Example 929]
7,> 1000 nM,CC(=O)Oc1ccccc1C(=O)N1CCC(c2[nH]nc(-c3ccc(F)cc3)c2-c2nc(C(=O)NC(C)C)cs2)CC1 [Example 930]
8,> 1000 nM,CC(C)NC(=O)c1csc(-c2c(-c3ccc(F)cc3)n[nH]c2C2CCN(C(=O)Cc3ccc4c(c3)OCO4)CC2)n1 [Example 931]
9,> 1000 nM,CCCOc1ccc(C(=O)N2CCC(c3[nH]nc(-c4ccc(F)cc4)c3-c3nc(C(=O)NC(C)C)cs3)CC2)cc1 [Example 932]
10,> 1000 nM,CC(C)NC(=O)c1csc(-c2c(-c3ccc(F)cc3)n[nH]c2C2CCN(C(=O)c3ccc(OC(C)C)cc3)CC2)n1 [Example 933]
11,> 1000 nM,Cc1cccc(C(=O)N2CCC(c3[nH]nc(-c4ccc(F)cc4)c3-c3nc(C(=O)NC(C)C)cs3)CC2)c1[N+](=O)[O-] [Example 935]
12,> 1000 nM,Cc1ccc([N+](=O)[O-])c(C(=O)N2CCC(c3[nH]nc(-c4ccc(F)cc4)c3-c3nc(C(=O)NC(C)C)cs3)CC2)c1 [Example 936]
13,> 1000 nM,COc1ccc(OC)c(C(=O)N2CCC(c3[nH]nc(-c4ccc(F)cc4)c3-c3nc(C(=O)NC(C)C)cs3)CC2)c1 [Example 938]
14,> 1000 nM,COc1ccc(C(=O)N2CCC(c3[nH]nc(-c4ccc(F)cc4)c3-c3nc(C(=O)NC(C)C)cs3)CC2)c(OC)c1 [Example 939]
15,> 1000 nM,COc1cccc(OC)c1C(=O)N1CCC(c2[nH]nc(-c3ccc(F)cc3)c2-c2nc(C(=O)NC(C)C)cs2)CC1 [Example 940]
16,> 1000 nM,COc1cc(OC)cc(C(=O)N2CCC(c3[nH]nc(-c4ccc(F)cc4)c3-c3nc(C(=O)NC(C)C)cs3)CC2)c1 [Example 941]
17,> 1000 nM,COc1cccc(C(=O)N2CCC(c3[nH]nc(-c4ccc(F)cc4)c3-c3nc(C(=O)NC(C)C)cs3)CC2)c1OC [Example 942]
18,> 1000 nM,Cc1ccc(SCC(=O)N2CCC(c3[nH]nc(-c4ccc(F)cc4)c3-c3nc(C(=O)NC(C)C)cs3)CC2)cc1 [Example 943]
19,> 1000 nM,CC(C)NC(=O)c1csc(-c2c(-c3ccc(F)cc3)n[nH]c2C2CCN(C(=O)/C=C/c3ccc(Cl)cc3)CC2)n1 [Example 944]
20,> 1000 nM,CC(C)NC(=O)c1csc(-c2c(-c3ccc(F)cc3)n[nH]c2C2CCN(C(=O)/C=C/c3ccccc3Cl)CC2)n1 [Example 945]
21,> 1000 nM,CC(C)NC(=O)c1csc(-c2c(-c3ccc(F)cc3)n[nH]c2C2CCN(C(=O)c3ccc([N+](=O)[O-])c(O)c3)CC2)n1 [Example 946]
22,≤ 1000 nM,CC(C)NC(=O)c1csc(-c2c(-c3ccc(F)cc3)n[nH]c2C2CCN(C(=O)c3cc(O)ccc3[N+](=O)[O-])CC2)n1 [Example 947]
23,> 1000 nM,CC(C)NC(=O)c1csc(-c2c(-c3ccc(F)cc3)n[nH]c2C2CCN(C(=O)c3cc([N+](=O)[O-])ccc3O)CC2)n1 [Example 948]

row,IC50,Structure (SMILES)
1,> 1000 nM,CC(C)NC(=O)c1csc(-c2c(-c3ccc(F)cc3)n[nH]c2C2CCN(C(=O)c3cc([N+](=O)[O-])ccc3F)CC2)n1 [Example 949]
2,> 1000 nM,CC(C)NC(=O)c1csc(-c2c(-c3ccc(F)cc3)n[nH]c2C2CCN(C(=O)c3cc(F)ccc3[N+](=O)[O-])CC2)n1 [Example 950]
3,> 1000 nM,CC(C)NC(=O)c1csc(-c2c(-c3ccc(F)cc3)n[nH]c2C2CCN(C(=O)c3ccc(F)c([N+](=O)[O-])c3)CC2)n1 [Example 951]
4,> 1000 nM,COc1ccc(Cl)cc1C(=O)N1CCC(c2[nH]nc(-c3ccc(F)cc3)c2-c2nc(C(=O)NC(C)C)cs2)CC1 [Example 952]
5,> 1000 nM,COc1cc(Cl)ccc1C(=O)N1CCC(c2[nH]nc(-c3ccc(F)cc3)c2-c2nc(C(=O)NC(C)C)cs2)CC1 [Example 953]
6,> 1000 nM,CC(C)NC(=O)c1csc(-c2c(-c3ccc(F)cc3)n[nH]c2C2CCN(C(=O)Cc3ccc(O)c(Cl)c3)CC2)n1 [Example 954]
7,> 1000 nM,COc1cc(C(=O)N2CCC(c3[nH]nc(-c4ccc(F)cc4)c3-c3nc(C(=O)NC(C)C)cs3)CC2)cc(Cl)n1 [Example 955]
8,> 1000 nM,CC(C)NC(=O)c1csc(-c2c(-c3ccc(F)cc3)n[nH]c2C2CCN(C(=O)c3ccc4cc(O)ccc4c3)CC2)n1 [Example 956]
9,> 1000 nM,CC(C)NC(=O)c1csc(-c2c(-c3ccc(F)cc3)n[nH]c2C2CCN(C(=O)c3c(O)ccc4ccccc34)CC2)n1 [Example 957]
10,> 1000 nM,CC(C)NC(=O)c1csc(-c2c(-c3ccc(F)cc3)n[nH]c2C2CCN(C(=O)c3cc4ccccc4cc3O)CC2)n1 [Example 958]
11,> 1000 nM,CC(C)NC(=O)c1csc(-c2c(-c3ccc(F)cc3)n[nH]c2C2CCN(C(=O)c3ccc4ccccc4c3O)CC2)n1 [Example 959]
12,> 1000 nM,CC(C)NC(=O)c1csc(-c2c(-c3ccc(F)cc3)n[nH]c2C2CCN(C(=O)c3ccc4cccc(O)c4n3)CC2)n1 [Example 960]
13,> 1000 nM,CC(C)NC(=O)c1csc(-c2c(-c3ccc(F)cc3)n[nH]c2C2CCN(C(=O)C(C)NC(=O)OC(C)(C)C)CC2)n1 (stereo not drawn) [Example 961]
14,> 1000 nM,CC(C)NC(=O)c1csc(-c2c(-c3ccc(F)cc3)n[nH]c2C2CCN(C(=O)C(C)NC(=O)OC(C)(C)C)CC2)n1 (stereo not drawn) [Example 962]
15,> 1000 nM,CC(C)NC(=O)c1csc(-c2c(-c3ccc(F)cc3)n[nH]c2C2CCN(C(=O)c3ccccc3C(F)(F)F)CC2)n1 [Example 963]
16,≤ 1000 nM,CC(C)NC(=O)c1csc(-c2c(-c3ccc(F)cc3)n[nH]c2C2CCN(C(=O)CCc3nc4ccccc4[nH]3)CC2)n1 [Example 964]
17,> 1000 nM,CC(C)NC(=O)c1csc(-c2c(-c3ccc(F)cc3)n[nH]c2C2CCN(C(=O)c3cccc(Cl)c3Cl)CC2)n1 [Example 965]
18,> 1000 nM,CC(C)NC(=O)c1csc(-c2c(-c3ccc(F)cc3)n[nH]c2C2CCN(C(=O)c3ccc(Cl)cc3Cl)CC2)n1 [Example 966]
19,> 1000 nM,CC(C)NC(=O)c1csc(-c2c(-c3ccc(F)cc3)n[nH]c2C2CCN(C(=O)c3cc(Cl)ccc3Cl)CC2)n1 [Example 967]
20,> 1000 nM,CC(C)NC(=O)c1csc(-c2c(-c3ccc(F)cc3)n[nH]c2C2CCN(C(=O)c3cc(F)c(F)c(O)c3F)CC2)n1 [Example 968]
21,> 1000 nM,CC(C)NC(=O)c1csc(-c2c(-c3ccc(F)cc3)n[nH]c2C2CCN(C(=O)/C=C/c3ccc4c(c3)OCO4)CC2)n1 [Example 969]
22,> 1000 nM,Cc1ccc(C(=O)CCC(=O)N2CCC(c3[nH]nc(-c4ccc(F)cc4)c3-c3nc(C(=O)NC(C)C)cs3)CC2)cc1 [Example 970]
